According to patent publication US7387779B2, “Anti-angiogenic proteins and fragments and methods of use thereof” (Beth Israel Deaconess Medical Center, priority 1998, dated 2008):
Values joined by “and” are separate entries in the source; they are usually repeats but may differ in a detail not shown here. Equal values may be shown once. Read-outs that look alike come from different tables or passages of the source.

Experiments:
[1] = test system: MDAMB-435 tumor xenografts; format: in vivo; conditions: for Final Tumor Weight ± SEM: control 333.3 ± 39.61
Description: Female nude NCRNU mice, 5-6 weeks old, weighing approximately 20 grams, were implanted with 2×10^6 MDAMB-435 cells in the subaxillary mammary fat pad. When the tumors were 100 mm^3, the animals were pair-matched into treatment and control groups. Each group contained 7 tumored mice, each of which was ear-tagged and followed individually throughout the experiment. Initial doses of T8 peptide or vehicle control were given on the day of pair-matching (Day 0), and were administered via intraperitoneal (i.p.) injection at 1 mg and 2.5 mg per kg animal weight. Mice were weighed twice weekly, and tumor measurements were taken by calipers twice weekly, starting on Day 1. These tumor measurements were converted to tumor volume by the well-known formula V=W2×L/2, and mean tumor volumes were plotted against time. Mice were euthenized at the end of the treatment period. Upon termination, the mice were weighed, sacrificed and their tumors were excised. The mean tumor weight per group was calculated, and the value of (mean treated tumor weight/mean control tumor weight×100) was subtracted from 100% to give the tumor growth inhibition (TGI) for each group.
Treatment was initiated when tumor volumes reached 100 mm^3. All groups received injections bid, i.p., for 26 days.

[2] = test system: MDAMB-435 tumor xenografts; test: MDAMB-435 human breast orthotopic xenograft (Example 57); format: in vivo, nude NCRNU mice; conditions: four weeks; for Final Tumor Weight (V/Vo) ± SEM: control 3.77 ± 0.38
Description: Female nude NCRNU mice, 5-6 weeks old, weighing approximately 20 grams, were implanted with 2×10^6 MDAMB-435 cells into the subaxillary mammary fat pad. When the tumors were 100 mm^3, the animals were pair-matched into treatment and control groups. Each group contained 6-7 tumored mice, each of which was ear-tagged and followed individually throughout the experiment. Initial doses of T8 or TP3 peptide or vehicle control were given on the day of pair-matching (Day 0), and were administered via intraperitoneal (i.p.) injection at doses indicated. Mice were weighed twice weekly, and tumor measurements were taken by calipers twice weekly, starting on Day 1. These tumor measurements were converted to tumor volume by a well-known formula, (V=W^2×L/2) and mean tumor volumes as well as volume ratios (V/Vo) were plotted against time. Mice were euthanized at the end of the treatment period. Upon termination, the mice were weighed, sacrificed and their tumors were excised. The mean tumor weight per group was calculated, and the mean value (treated tumor ratio/mean control tumor ratio× 100) was subtracted from 100% to give the tumor growth inhibition (TGI) for each group.
Treatment was initiated when tumor volumes reached […]. All groups received injections I.P. daily, except for one T8-treated group, which was treated twice per week.

PC3 tumor xenografts [3] = test: PC3 human prostate tumor xenograft (Example 58); format: in vivo, nude NCRNU mice
Description: Male nude NCRNU mice, 5-6 weeks old, weighing approximately 25 grams, 6 were implanted with 2×10^6 PC3 cells into the dorsal subcutis. When the tumors were 60 mm^3, the animals were pair-matched into treatment and control groups. Each group contained 6-7 tumored mice, each of which was ear-tagged and followed individually throughout the experiment. Initial doses of peptide or vehicle control were given on the day of pair-matching (Day 0), and were administered via intraperitoneal (i.p.) injection at doses indicated. Mice were weighed weekly, and tumor measurements were taken by calipers weekly. These tumor measurements were converted to tumor volume by a well-known formula, (V=W^2×L/2), and mean tumor volumes were plotted against time. Mice were euthenized at the end of the treatment period. Upon termination, the mice were weighed, sacrificed and their tumors were excised. The mean tumor weight per group was calculated, and the value of mean treated tumor volume or volume ratio/mean control tumor volume or volume ratio×100 was subtracted from 100% to give the tumor growth inhibition (TG1) for each group. All groups received injections I.P. daily, except for two T8-treated groups, which were treated twice per week and once a week, respectively.

[4] = test system: MDAMB-435 tumor xenografts; test: MDAMB-435 human breast tumor xenograft (Example 59); format: in vivo, nude NCRNU mice; conditions: 5.0 mg/kg i.p. daily, 3 weeks
Excerpt: (§1) For tests involving the MDAMB-435 model, female nude NCRNU mice, 5-6 weeks old, weighing approximately 20 grams, were implanted with 2×10^6 MDAMB-435 cells into the subaxillary mammary fat pad. For tests involving the PC3 model, male nude NCRNU mice, 5-6 weeks old, weighing approximately 25 g were implanted with 2×10^6 PC3 cells into the dorsal subcutis. When the tumors were 100 mm^3 (for the MDAMB-435 model), or 60 mm^3 (for the PC3 model), the animals were pair-matched into treatment and control groups.
(§2) Each group contained 6-7 tumored mice, each of which was ear-tagged and followed individually throughout the experiment. Initial doses of peptide or vehicle control were given on the day of pair-matching (Day 0), and were administered daily via intraperitoneal (i.p.) injection at doses indicated. Mice were weighed weekly, and tumor measurements were taken by calipers weekly, starting on Day 0. These tumor measurements were converted to tumor volume by a well-known formula, (V=W^2×L/2) and mean tumor volumes were plotted against time. Mice were euthenized at the end of the treatment period. Upon termination, the mice were weighed, sacrificed and their tumors were excised. The mean tumor weight per group was calculated, and the mean treated tumor volume/control tumor volume×100 was subtracted from 100% to give the tumor growth inhibition (TGI) for each group.

PC3 tumor xenografts [5] = test: PC3 human prostate tumor xenograft (Example 59); format: in vivo, nude NCRNU mice; conditions: 5.0 mg/kg i.p. daily, 3 weeks
Excerpt: as §1, §2

[6] = test system: mouse aortic endothelial cells (MAE); test: Endothelial tube formation on Matrigel; format: cell-based; conditions: endothelial tube assay (FIGS. 30 and 31)
Description: To measure inhibition of endothelial tube formation, 320 μl of Matrigel (Collaborative Biomedical Products, Bedford, Mass., USA) was added to each well of a 24-well plate and allowed to polymerize (Grant, D. S. et al., 1994, Pathol. Res. Pract. 190:854-63). A suspension of 25,000 mouse aortic endothelial cells (MAE) in EGM-2 medium (Clonetics Corp., San Diego, Calif., USA) without antibiotic was passed into each well coated with Matrigel. The cells were treated with increasing concentrations of either Arresten, BSA, sterile PBS or the 7S domain. All assays were performed in triplicate. Cells were incubated for 24-48 hours at 37° C. and viewed using a CK2 Olympus microscope (3.3 ocular, 10× objective). The cells were then photographed using 400 DK coated TMAX film (Kodak). Cells were stained with diff-quik fixative (Sigma Chemical Company, St. Louis, Mo., USA) and photographed again. Ten fields were viewed, and the tubes counted and averaged.
Matrigel (Collaborative Biomedical Products, Bedford, Mass., USA) was added ([…]) to each well of a 24 well plate and allowed to polymerize (Grant, D. S. et al., supra). A suspension of 25,000 mouse aortic endothelial cells (MAE) in EGM-2 (Clonetics Corporation, San Diego, Calif., USA) medium without antibiotic was passed into each well coated with Matrigel. The cells were treated with either Canstatin, BSA, sterile PBS or α5-NC1 domain in increasing concentrations. All assays were performed in triplicate. Cells were incubated for 24-48 hours at 37° C. and viewed using a CK2 Olympus microscope (3.3 ocular, 10× objective). The cells were then photographed using 400 DK coated TMAX film (Kodak). Cells were stained with diff-quik fixative (Sigma Chemical Co., St. Louis, Mo., USA) and photographed again (Grant, D. S. et al., 1994, Pathol. Res. Pract. 190:854-63). Ten fields were viewed, tubes counted and averaged.
Matrigel (Collaborative Biomedical Prods., Bedford, Mass., USA) was added ([…]) to each well of a 24-well plate and allowed to polymerize (Grant, D. S. et al., 1994, Pathol. Res. Pract. 190:854-63). A suspension of 25,000 MAE cells in EGM-2 medium (Clonetics Corporation, San Diego, Calif., USA) without antibiotic was passed into each well coated with Matrigel (Grant, D. S. et al., 1994, Pathol. Res. Pract. 190:854-63). The cells were treated with either Tumstatin, BSA or 7S domain in increasing concentrations. Control cells were incubated with sterile PBS. All assays were performed in triplicate. Cells were incubated for 24-48 hours at 37° C. and viewed using a CK2 Olympus microscope (magnification of 3.3× ocular, 10× objective). The cells were then photographed using 400 DK coated TMAX film (Kodak). Cells were stained with diff-quik fixative (Sigma Chemical Co.) and photographed again (Grant, D. S. et al., 1994, Pathol. Res. Pract. 190:854-63). Ten fields were viewed, and the number of tubes were counted by two investigators unaware of the experimental protocols, and averaged.
Fragments and mutants of Arresten and Canstatin were also made according to the Pseudomonas elastase digestions of Mariyama et al. (1992, J. Biol. Chem. 267:1253-58). The digest was resolved by gel filtration HPLC and the resultant fragments were analyzed by SDS-PAGE and evaluated in the endothelial tube assay described above. These fragments included a 12 kDa fragment of Arresten, an 8 kDa fragment of Arresten, and a 10 kDa fragment of Canstatin. In addition, two fragments of Tumstatin (‘333’ and ‘334’) were generated by PCR cloning.

[7] = 5.0 mg/kg i.p. daily, 3 weeks, T7 vehicle 5.626 ± 0.38, T8 vehicle 6.278 ± 1.483
[8] = 5.0 mg/kg, printed (2x/week) again, once a week in the text

KQRFTTMPFLFCNVNDVCNFASRNDYS [T8]
% Tumor growth inhibition ([1]; 2.5 mg/kg, bid i.p., 26 days): ~49% and 47.91%
Final Tumor Weight ± SEM ([1]; 2.5 mg/kg, bid i.p., 26 days): 173.6 ± 23.73
Final Tumor Weight ± SEM ([1]; Dosage 1.9 mg/kg as printed (1 mg/kg in the text), bid i.p., 26 days): 237.8 ± 31.88
toxicity as judged by weight change ([1]; mouse, in vivo): no toxicity
Final Tumor Weight (V/Vo) ± SEM ([2]; 5.0 mg/kg (2x/week)): 2.21 ± 0.31
% Tumor growth inhibition ([2]; 5.0 mg/kg I.P. daily): 31%
Final Tumor Weight (V/Vo) ± SEM ([2]; 5.0 mg/kg I.P. daily): 2.60 ± 0.38
% Tumor growth inhibition (PC3 tumor xenografts [3]; 5.0 mg/kg (2x/week)): 8.1%
Final Tumor Weight (V/Vo) ± SEM (PC3 tumor xenografts [3]; 5.0 mg/kg (2x/week)): 5.770 ± 1.156
% Tumor growth inhibition (PC3 tumor xenografts [3]; 5.0 mg/kg i.p. daily, 3 weeks): 45%
Final Tumor Weight (V/Vo) ± SEM (PC3 tumor xenografts [3]; [7]): 3.455 ± 1.228
% Tumor growth inhibition (PC3 tumor xenografts [3]; [8]): 39.5%
Final Tumor Weight (V/Vo) ± SEM (PC3 tumor xenografts [3]; [8]): 3.800 ± 1.602
% Tumor growth inhibition [4]: 50.5%
Final Tumor Weight (V/Vo) ± SEM ([4]; control 468.5 ± 48.06): 231.9 ± 27.03
% Tumor growth inhibition (PC3 tumor xenografts [5]): 35.4%
Final Tumor Weight (V/Vo) ± SEM (PC3 tumor xenografts [5]; control 1070.0 ± 132.5): 691.4 ± 90.52

KLFCNVNCVCNFASRNDYS (TP3 (amino acids 76-94 of SEQ ID NO10; lysine has been substituted for the phenylalanine residue at position 76 of the full-length Tumstatin molecule, and cysteine has been substituted for the aspartic acid at position 83))
Final Tumor Weight (V/Vo) ± SEM ([2]; 1.0 mg/kg I.P. daily): 2.62 ± 0.45
% Tumor growth inhibition ([2]; 5.0 mg/kg I.P. daily): 50.0%
Final Tumor Weight (V/Vo) ± SEM ([2]; 5.0 mg/kg I.P. daily): 1.88 ± 0.29
% Tumor growth inhibition (PC3 tumor xenografts [3]; 5.0 mg/kg i.p. daily, 3 weeks): 53.2%
Final Tumor Weight (V/Vo) ± SEM (PC3 tumor xenografts [3]; [7]): 2.940 ± 0.636

B1: Tumstatin 333: residues 1 to 124 of full-length Tumstatin (SEQ ID NO:20) (protein)
chain: GLKGKRGDSGSPATWTTRGFVFTRHSQTTAIPSCPEGTVPLYSGFSFLFVQGNQRAHGQDLGTLGSCLQRFTTMPFLFCNVNDVCNFASRNDYSYWLSTPALMPMNMAPITGRALEPYISRCTV
modifications: Tumstatin 333 (amino acids 1-124 of3 SEQ ID NO10)
ED50 [6]: 0.075 µg/mL

B2: Tumstatin 334: residues 125 to 244 of full-length Tumstatin (SEQ ID NO:21) (protein)
chain: CEGPAIAIAVHSQTTDIPPCPHGWISLWKGFSFIMFTSAGSEGTGQALASPGSCLEEFRASPFLECHGRGTCNYYSNSYSFWLASLNPERMFRKPIPSTVKAGELEKIISRCQVCMKKRH
modifications: Tumstatin 334 (amino acids 125-244 of SEQ ID NO10)
ED50 [6]: 0.02 µg/mL
